Source: ChEMBL document CHEMBL3425417, “Synthesis and Structure-Activity Relationship Study of 1-Phenyl-1-(quinazolin-4-yl)ethanols as Anticancer Agents” (ACS Med Chem Lett, 2015)
Calls of active or inactive are those of the source. The calls are words filed in the database; no cut-off is given here.

How the values were obtained:
A549 [1] = experiment: Cytotoxicity against human A549 cells assessed as growth inhibition after 72 hrs by CellTiter 96 Aqueous one solution cell proliferation assay; type: functional, cell-based; details: for IC50: A549, 72 h
Tubulin (Homo sapiens) [2] = biological target: T1, Tubulin (Homo sapiens) (UniProt P68371+Q9H4B7+P0DPH7+P68366+Q13509+Q71U36+P04350+Q3ZCM7+P07437+P68363+Q9BQE3+Q6PEY2+Q13885+Q9BVA1+Q9BUF5); experiment: Inhibition of tubulin (unknown origin) polymerization at 3 to 10 uM by fluorescence assay; type: protein-complex assay
Tubulin (Homo sapiens) [3] = biological target: T1, Tubulin (Homo sapiens); experiment: Inhibition of tubulin (unknown origin) polymerization at 10 uM by fluorescence assay; type: protein-complex assay
MCF7 = experiment: Cytotoxicity against human MCF7 cells assessed as growth inhibition after 72 hrs by CellTiter 96 Aqueous one solution cell proliferation assay; type: functional, cell-based; details: MCF7, 72 h
[4] = Cytotoxicity against human HCT116 cells assessed as growth inhibition after 72 hrs by CellTiter 96 Aqueous one solution cell proliferation assay; type: functional, cell-based; details: HCT-116, 72 h
A549 [5] = experiment: Cell cycle arrest in human A549 cells assessed as accumulation at G2/M phase at 1 uM after 24 hrs by propidium iodide staining-based flow cytometric analysis (reference value: 16.5%); type: functional
A549 [6] = experiment: Cell cycle arrest in human A549 cells assessed as accumulation at G1 phase at 1 uM after 24 hrs by propidium iodide staining-based flow cytometric analysis (reference value: 75.9%); type: functional
NCI-H460 = experiment: Cytotoxicity against human NCI-H460 cells assessed as growth inhibition after 72 hrs by CellTiter 96 Aqueous one solution cell proliferation assay; type: functional, cell-based; details: NCI-H460, 72 h
A549 [7] = experiment: Cell cycle arrest in human A549 cells assessed as accumulation at G2/M phase at 0.3 uM after 24 hrs by propidium iodide staining-based flow cytometric analysis (reference value: 16.5%); type: functional
A549 [8] = experiment: Cell cycle arrest in human A549 cells assessed as accumulation at G1 phase at 3 uM after 24 hrs by propidium iodide staining-based flow cytometric analysis (reference value: 75.9%); type: functional
[9] = Cytotoxicity against human PC3 cells assessed as growth inhibition after 72 hrs by CellTiter 96 Aqueous one solution cell proliferation assay; type: functional, cell-based; details: PC-3, 72 h
HeLa = experiment: Cytotoxicity against human HeLa cells assessed as growth inhibition after 72 hrs by CellTiter 96 Aqueous one solution cell proliferation assay; type: functional, cell-based
A549 [10] = experiment: Cell cycle arrest in human A549 cells assessed as accumulation at G1 phase at 0.3 uM after 24 hrs by propidium iodide staining-based flow cytometric analysis (reference value: 75.9%); type: functional
A549 [11] = experiment: Cell cycle arrest in human A549 cells assessed as accumulation at G2/M phase at 3 uM after 24 hrs by propidium iodide staining-based flow cytometric analysis (reference value: 16.5%); type: functional
Tubulin (Homo sapiens) [12] = biological target: T1, Tubulin (Homo sapiens); experiment: Displacement of colchicine from tubulin (unknown origin) preincubated for 30 mins followed by colchicine addition measured after 30 mins by fluorescence assay; type: protein-complex assay
A549 [13] = experiment: Cell cycle arrest in human A549 cells assessed as accumulation at G2/M phase after 24 hrs by propidium iodide staining-based flow cytometric analysis; type: functional
A549 [14] = experiment: Induction of microtubule destabilization in human A549 cells at 4 uM by DAPI-staining-based fluorescence microscopic analysis; type: cell-based
A549 [15] = experiment: Induction of microtubule destabilization in human A549 cells at 45 nM by DAPI-staining-based fluorescence microscopic analysis; type: cell-based
Tubulin (Homo sapiens) [16] = biological target: T1, Tubulin (Homo sapiens); details: 45 uM
Description: Displacement of colchicine from tubulin (unknown origin) at 45 uM preincubated for 30 mins followed by colchicine addition measured after 30 mins by fluorescence assay

Row | Compound | IC50 (A549 [1]) | further results
1 | CN(C)c1ccc(C(C)(O)c2ncnc3ccccc23)cc1 (configuration not stated) | 1300 nM | 
2 | COc1ccc(C(C)(O)c2nc(Nc3ccccc3)nc3ccccc23)cc1 (configuration not stated) | 2700 nM | 
3 | CC(O)(c1ccc(F)cc1)c1ncnc2ccccc12 (configuration not stated) | > 25000 nM | 
4 | COc1ccc(C(O)(Cc2ccccc2)c2ncnc3ccccc23)cc1 (configuration not stated) | 9800 nM | 
5 | COc1ccc(C(C)(O)c2ncnc3ccccc23)cc1OC (configuration not stated) | 21000 nM | 
6 | COc1ccc(C(C)(O)c2nc(-c3ccsc3)nc3ccccc23)cc1 (configuration not stated) | 35 nM | 
7 | COc1ccc(C(=O)c2ncnc3ccccc23)cc1 | 20000 nM | 
8 | CC(O)(c1ccc(OC(F)(F)F)cc1)c1ncnc2ccccc12 (configuration not stated) | > 25000 nM | 
9 | COc1ccc(C(C)(O)c2ncnc3ccccc23)cc1 (stereo in doubt; (+)-1a) |  | inhibition (Tubulin (Homo sapiens) [2]): Active; growth inhibition (GI) (A549 [1]): Active
10 | CC(O)(c1ccc(C(F)(F)F)cc1)c1ncnc2ccccc12 (configuration not stated) | > 25000 nM | 
11 | COc1ccc(C(C)(O)c2ncnc3ccccc23)cc1 (single isomer, unassigned; (-)) |  | inhibition (Tubulin (Homo sapiens) [2]): Active; growth inhibition (GI) (A549 [1]): Active
12 | COc1ccc(C(C)(O)c2nc(N3CCC(C)CC3)nc3ccccc23)cc1 (configuration not stated) | 19000 nM | 
13 | COc1ccc(C(C)(O)c2nc(N3CCOCC3)nc3ccccc23)cc1 (configuration not stated) | 170 nM | 
14 | COc1ccc(C(C)(O)c2nc(-c3ccccc3)nc3ccccc23)cc1 (configuration not stated) | 100 nM | inhibition (Tubulin (Homo sapiens) [3]): Active
15 | CCOc1ccc(C(C)(O)c2ncnc3ccccc23)cc1 (configuration not stated) | 300 nM | 
16 | COc1ccc(C(C)(O)c2nc(Oc3ccccc3)nc3ccccc23)cc1 (configuration not stated) | 3300 nM | 
17 | COc1cc(C(C)(O)c2ncnc3ccccc23)cc(OC)c1OC (configuration not stated) | > 25000 nM | 
18 | COc1ccc(C(C)(O)c2nc(OC)c3ccccc3n2)cc1 (configuration not stated) | 2000 nM | 
19 | COc1ccc(C(C)(O)c2nc(C(Cl)(Cl)Cl)nc3ccccc23)cc1 (configuration not stated) | 38 nM | 
20 | CC(O)(c1cccc(O)c1)c1ncnc2ccccc12 (configuration not stated) | > 25000 nM | 
21 | COc1ccc(C(C)(O)c2nc(C)nc3ccccc23)cc1 (configuration not stated) | 53 nM | 
22 | COc1cccc(C(C)(O)c2ncnc3ccccc23)c1 (configuration not stated) | > 25000 nM | 
23 | CCCOc1nc(C(C)(O)c2ccc(OC)cc2)c2ccccc2n1 (configuration not stated) | 1200 nM | 
24 | COc1ccc(C(C)(O)c2nc(OC)nc3ccccc23)cc1 (configuration not stated) | 58 nM | 
25 | COc1ccc(C(C)(O)c2nc(=O)[nH]c3ccccc23)cc1 (configuration not stated) | > 25000 nM | 

Row | Compound | IC50 (A549 [1]) | further results
26 | CCOc1nc(C(C)(O)c2ccc(OC)cc2)c2ccccc2n1 (configuration not stated) | 340 nM | 
27 | COc1ccc(C(C)(O)c2ncnc3ccccc23)cc1 (racemic) [listing 1 of 2 here] | 270 nM | IC50 (MCF7): 100 nM; IC50 [4]: 100 nM; Activity (A549 [5]): 68.6%; Activity (A549 [6]): 23.7%; IC50 (NCI-H460): 100 nM; Activity (A549 [7]): 35.3%; Activity (A549 [8]): 18.3%; IC50 [9]: 100 nM; IC50 (HeLa): 100 nM; Activity (A549 [10]): 56.9%; Activity (A549 [11]): 75.9%
28 | CC[C@]1(O)C[C@@H]2CN(CCc3c([nH]c4ccccc34)[C@@](C(=O)OC)(c3cc4c(cc3OC)N(C)[C@H]3[C@@](O)(C(=O)OC)[C@H](OC(C)=O)[C@]5(CC)C=CCN6CC[C@]43[C@@H]65)C2)C1 |  | inhibition (Tubulin (Homo sapiens) [12]): inactive
29 | C=CCOc1nc(C(C)(O)c2ccc(OC)cc2)c2ccccc2n1 (configuration not stated) | 410 nM | 
30 | COc1ccc(C(C)(O)c2ncnc3ccccc23)cc1 (racemic) [listing 2 of 2 here] |  | inhibition (Tubulin (Homo sapiens) [12]): Dose-dependent effect; Activity (A549 [13]): Dose-dependent effect; Activity (A549 [14]): Active; inhibition (Tubulin (Homo sapiens) [2]): Active
31 | CC(O)(c1ccc(Cl)cc1)c1ncnc2ccccc12 (configuration not stated) | > 25000 nM | 
32 | COc1ccc(C(C)(O)c2nc(N(C)C)nc3ccccc23)cc1 (configuration not stated) | 210 nM | 
33 | COc1ccc(C(C)(O)c2nc(-c3ccccc3Cl)nc3ccccc23)cc1 (configuration not stated) | 780 nM | 
34 | CCC(O)(c1ccc(OC)cc1)c1ncnc2ccccc12 (configuration not stated) | 1800 nM | 
35 | COc1ccc(C(C)(O)c2nc(SC)nc3ccccc23)cc1 (configuration not stated) | 67 nM | 
36 | COc1ccc(C(C)(O)c2nc(Cl)nc3ccccc23)cc1 (configuration not stated) | 27 nM | 
37 | COc1cc2c(c(OC)c1OC)-c1ccc(OC)c(=O)cc1[C@@H](NC(C)=O)CC2 |  | Activity (A549 [15]): Active
38 | CSc1ccc(C(C)(O)c2ncnc3ccccc23)cc1 (configuration not stated) | 340 nM | 
39 | COc1ccc(C(C)(O)c2nc(-c3cccc(Cl)c3)nc3ccccc23)cc1 (configuration not stated) | 2100 nM | 
40 | COC(=O)Nc1nc2cc(C(=O)c3cccs3)ccc2[nH]1 |  | inhibition (Tubulin (Homo sapiens) [16]): Active
41 | COc1ccc(C(O)(c2ncnc3ccccc23)C(F)(F)F)cc1 (configuration not stated) | 1100 nM | 
42 | COc1ccc(C(O)c2ncnc3ccccc23)cc1 (configuration not stated) | > 25000 nM | 
43 | CNc1ccc(C(C)(O)c2ncnc3ccccc23)cc1 (configuration not stated) | 4100 nM | 
44 | COc1ccc(C(C)(O)c2nc(N3CCCCC3)nc3ccccc23)cc1 (configuration not stated) | 2700 nM | 
45 | CC(O)(c1ccccc1)c1ncnc2ccccc12 (configuration not stated) | > 25000 nM | 
46 | CCOc1ccc(C(=O)c2ncnc3ccccc23)cc1 | > 25000 nM | 
47 | COc1ccc(C(C)(O)c2nc(N3CCN(c4ccc(F)cc4)CC3)nc3ccccc23)cc1 (configuration not stated) | 1900 nM | 
48 | CC(O)(c1ccc2c(c1)OCO2)c1ncnc2ccccc12 (configuration not stated) | 20000 nM | 
49 | CC(O)(c1cccc(OCc2ccccc2)c1)c1ncnc2ccccc12 (configuration not stated) | > 25000 nM | 
50 | COc1ccc(C(C)(O)c2nc(-c3ccc(Cl)cc3)nc3ccccc23)cc1 (configuration not stated) | 400 nM | 
